# Data from paper PMC4577959 (Journal of the American Chemical Society, 2015).
# Legend:
# [1] = molecular target: N2B peptide (NHR2-binding motif of E-proteins) (Homo sapiens, UniProt Q99081); details: ratio of Kd values, FP assay with flu-N2B
# [2] = molecular target: fluorescein-labeled N2B peptide (NHR2-binding motif of E-proteins); assay: fluorescence polarisation
molecule,measurement,setting,value
CC[C@H](C)[C@@H]1NC(=O)[C@H](CO)NC(=O)[C@H](CCCNC(=N)N)NC(=O)[C@H](Cc2c[nH]c3ccccc23)NC(=O)[C@@H](NC(=O)[C@H](CCC(=O)O)NC(C)=O)CSSC[C@@H](C(=O)N[C@@H](CCCNC(=N)N)C(N)=O)NC(=O)[C@H](CC(C)C)NC(=O)[C@H](CCC(=O)O)NC(=O)[C@@H](NC(=O)[C@H](CC(C)C)NC(=O)[C@H](Cc2c[nH]cn2)NC(=O)[C@H](Cc2c[nH]c3ccccc23)NC(=O)[C@H](CC(C)C)NC(=O)[C@H](CCC(=O)O)NC(C)=O)CCCCn2cc(nn2)COCc2cn(nn2)CCCC[C@@H](C(N)=O)NC(=O)[C@H](CC(C)C)NC(=O)[C@H](C(C)C)NC(=O)[C@H](CCCNC(=N)N)NC1=O [CHD^DS-NHR2-3],enhanced affinity versus the native NHR2 coiled coil,[1],5 fold
"GST-NHR2(482–551), native Nervy homology two (NHR2) coiled coil domain of AML1-ETO (domain or fragment)",Kd,[2],356 µM
